Data on ten compounds can be found in ChEMBL document CHEMBL2177005, “Mineralocorticoid receptor antagonists for the treatment of hypertension and diabetic nephropathy” (J Med Chem, 2012).

Data set [1] has as its target T1, Mineralocorticoid receptor (Homo sapiens, UniProt P08235).
T1 sequence (P08235 whole entry): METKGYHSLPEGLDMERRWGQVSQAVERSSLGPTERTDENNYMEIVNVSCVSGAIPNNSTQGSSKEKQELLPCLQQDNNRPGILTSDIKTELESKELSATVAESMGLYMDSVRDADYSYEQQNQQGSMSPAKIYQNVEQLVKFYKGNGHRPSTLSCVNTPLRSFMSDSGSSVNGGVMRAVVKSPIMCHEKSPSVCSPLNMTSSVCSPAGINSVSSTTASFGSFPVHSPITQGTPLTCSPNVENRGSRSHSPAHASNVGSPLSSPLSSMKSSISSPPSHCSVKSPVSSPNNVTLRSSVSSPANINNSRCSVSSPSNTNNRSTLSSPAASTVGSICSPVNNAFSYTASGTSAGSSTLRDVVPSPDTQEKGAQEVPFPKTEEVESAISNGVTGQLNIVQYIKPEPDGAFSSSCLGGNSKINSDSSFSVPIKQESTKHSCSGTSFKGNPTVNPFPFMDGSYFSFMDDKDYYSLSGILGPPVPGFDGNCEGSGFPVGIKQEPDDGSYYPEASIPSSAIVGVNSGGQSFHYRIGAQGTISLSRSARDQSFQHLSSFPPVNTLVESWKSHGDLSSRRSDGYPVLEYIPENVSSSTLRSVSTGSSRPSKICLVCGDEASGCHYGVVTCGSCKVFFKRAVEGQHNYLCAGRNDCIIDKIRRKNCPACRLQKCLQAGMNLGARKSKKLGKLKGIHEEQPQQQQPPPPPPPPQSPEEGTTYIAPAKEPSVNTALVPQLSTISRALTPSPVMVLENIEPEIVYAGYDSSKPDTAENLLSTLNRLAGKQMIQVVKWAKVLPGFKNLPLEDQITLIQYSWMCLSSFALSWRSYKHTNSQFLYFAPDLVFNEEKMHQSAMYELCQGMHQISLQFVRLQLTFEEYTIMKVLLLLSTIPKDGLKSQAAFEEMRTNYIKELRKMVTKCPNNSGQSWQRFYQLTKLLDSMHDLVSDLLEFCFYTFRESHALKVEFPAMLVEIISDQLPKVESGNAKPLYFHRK
Put plainly: Antagonist activity at mineralocorticoid receptor. The class given is functional.

Data set [2] is described as follows: Protein binding in plasma. The class given is ADME, cell-free. Particulars: read-out: PPB (converted).
For data set [3], the target named is T2, Mineralocorticoid receptor (Rattus norvegicus, UniProt P22199).
T2 sequence (P22199 whole entry): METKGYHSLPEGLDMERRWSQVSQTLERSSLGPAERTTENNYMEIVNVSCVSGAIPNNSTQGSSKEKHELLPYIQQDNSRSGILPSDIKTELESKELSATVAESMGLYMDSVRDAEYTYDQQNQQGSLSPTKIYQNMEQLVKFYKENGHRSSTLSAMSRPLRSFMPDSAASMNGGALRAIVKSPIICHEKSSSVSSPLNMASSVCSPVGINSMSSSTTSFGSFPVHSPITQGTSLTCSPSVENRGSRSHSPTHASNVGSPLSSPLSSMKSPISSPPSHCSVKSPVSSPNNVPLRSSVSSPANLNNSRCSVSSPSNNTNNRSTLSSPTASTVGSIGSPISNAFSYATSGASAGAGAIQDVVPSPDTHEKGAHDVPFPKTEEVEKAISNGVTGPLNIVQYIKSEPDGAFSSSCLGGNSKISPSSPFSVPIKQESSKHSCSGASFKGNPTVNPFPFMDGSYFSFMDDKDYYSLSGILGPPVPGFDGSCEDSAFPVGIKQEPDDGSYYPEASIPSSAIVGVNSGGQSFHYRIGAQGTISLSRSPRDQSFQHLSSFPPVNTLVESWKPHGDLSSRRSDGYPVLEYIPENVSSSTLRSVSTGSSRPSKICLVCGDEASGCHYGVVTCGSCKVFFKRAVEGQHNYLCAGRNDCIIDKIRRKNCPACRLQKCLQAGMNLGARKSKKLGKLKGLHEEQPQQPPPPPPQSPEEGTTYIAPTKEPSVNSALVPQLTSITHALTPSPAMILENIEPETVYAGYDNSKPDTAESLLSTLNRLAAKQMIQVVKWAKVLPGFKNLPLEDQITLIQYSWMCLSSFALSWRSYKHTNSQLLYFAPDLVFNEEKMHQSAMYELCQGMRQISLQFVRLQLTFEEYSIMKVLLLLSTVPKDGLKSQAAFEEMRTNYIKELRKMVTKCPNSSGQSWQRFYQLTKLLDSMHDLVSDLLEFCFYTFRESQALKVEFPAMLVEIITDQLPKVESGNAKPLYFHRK
Put plainly: Binding affinity to rat mineralocorticoid receptor.

Data set [4] in a line: Binding affinity to Ca2+ channel L type by radioligand binding assay.
The target in data set [5] is T1, Mineralocorticoid receptor. Put plainly: Antagonist activity at mineralocorticoid receptor expressed in african green monkey COS7 cells after 18 hrs by luciferase reporter gene assay. The class given is functional, cell-based, COS-7. In general terms: A reporter such as luciferase makes a cellular process visible.
Data set [6] has as its target T2, Mineralocorticoid receptor. Briefly: Displacement of [3H]-aldosterone from rat mineralocorticoid receptor after 18 hrs by liquid scintillation counter analysis. (Loss of bound radioactivity is the signal in a displacement assay; it reports binding, not function.)
The target of data set [7] is T3, Progesterone receptor (Homo sapiens, UniProt P06401).
T3 sequence (P06401 whole entry): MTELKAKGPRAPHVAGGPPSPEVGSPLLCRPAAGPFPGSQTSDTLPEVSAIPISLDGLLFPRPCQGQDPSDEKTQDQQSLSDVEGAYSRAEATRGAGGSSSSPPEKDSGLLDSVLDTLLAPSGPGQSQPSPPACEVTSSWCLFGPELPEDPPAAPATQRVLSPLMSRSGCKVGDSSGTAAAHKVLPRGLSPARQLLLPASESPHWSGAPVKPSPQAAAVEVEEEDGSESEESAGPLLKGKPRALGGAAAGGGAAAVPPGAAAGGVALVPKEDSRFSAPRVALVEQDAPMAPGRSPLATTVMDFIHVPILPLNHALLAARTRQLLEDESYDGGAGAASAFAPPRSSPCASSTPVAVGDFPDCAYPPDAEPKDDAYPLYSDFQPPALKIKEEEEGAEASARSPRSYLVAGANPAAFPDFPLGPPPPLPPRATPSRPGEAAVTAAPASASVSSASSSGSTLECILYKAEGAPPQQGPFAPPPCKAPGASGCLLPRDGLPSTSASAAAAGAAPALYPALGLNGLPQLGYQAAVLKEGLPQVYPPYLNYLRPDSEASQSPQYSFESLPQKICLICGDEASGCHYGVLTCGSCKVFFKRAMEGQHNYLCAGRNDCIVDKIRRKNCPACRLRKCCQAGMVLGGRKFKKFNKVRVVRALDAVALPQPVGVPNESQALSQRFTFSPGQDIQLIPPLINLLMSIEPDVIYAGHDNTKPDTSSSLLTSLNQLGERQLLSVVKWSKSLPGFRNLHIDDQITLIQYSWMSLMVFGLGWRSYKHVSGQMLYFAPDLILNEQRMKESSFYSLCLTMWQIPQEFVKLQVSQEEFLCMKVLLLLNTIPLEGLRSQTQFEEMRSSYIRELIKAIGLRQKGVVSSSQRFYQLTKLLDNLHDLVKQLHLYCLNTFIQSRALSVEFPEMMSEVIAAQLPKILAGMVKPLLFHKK
Briefly: Antagonist activity at progesterone receptor. The class given is functional.

In data set [8] the target is T3, Progesterone receptor. Briefly: Antagonist activity against progesterone receptor expressed in CHOK1 cells after 10 to 30 mins by luciferase reporter gene assay. The class given is functional, cell-based, CHO-K1.
Data set [9] has as its target T4, Androgen receptor (Homo sapiens, UniProt P10275).
T4 sequence (P10275 whole entry): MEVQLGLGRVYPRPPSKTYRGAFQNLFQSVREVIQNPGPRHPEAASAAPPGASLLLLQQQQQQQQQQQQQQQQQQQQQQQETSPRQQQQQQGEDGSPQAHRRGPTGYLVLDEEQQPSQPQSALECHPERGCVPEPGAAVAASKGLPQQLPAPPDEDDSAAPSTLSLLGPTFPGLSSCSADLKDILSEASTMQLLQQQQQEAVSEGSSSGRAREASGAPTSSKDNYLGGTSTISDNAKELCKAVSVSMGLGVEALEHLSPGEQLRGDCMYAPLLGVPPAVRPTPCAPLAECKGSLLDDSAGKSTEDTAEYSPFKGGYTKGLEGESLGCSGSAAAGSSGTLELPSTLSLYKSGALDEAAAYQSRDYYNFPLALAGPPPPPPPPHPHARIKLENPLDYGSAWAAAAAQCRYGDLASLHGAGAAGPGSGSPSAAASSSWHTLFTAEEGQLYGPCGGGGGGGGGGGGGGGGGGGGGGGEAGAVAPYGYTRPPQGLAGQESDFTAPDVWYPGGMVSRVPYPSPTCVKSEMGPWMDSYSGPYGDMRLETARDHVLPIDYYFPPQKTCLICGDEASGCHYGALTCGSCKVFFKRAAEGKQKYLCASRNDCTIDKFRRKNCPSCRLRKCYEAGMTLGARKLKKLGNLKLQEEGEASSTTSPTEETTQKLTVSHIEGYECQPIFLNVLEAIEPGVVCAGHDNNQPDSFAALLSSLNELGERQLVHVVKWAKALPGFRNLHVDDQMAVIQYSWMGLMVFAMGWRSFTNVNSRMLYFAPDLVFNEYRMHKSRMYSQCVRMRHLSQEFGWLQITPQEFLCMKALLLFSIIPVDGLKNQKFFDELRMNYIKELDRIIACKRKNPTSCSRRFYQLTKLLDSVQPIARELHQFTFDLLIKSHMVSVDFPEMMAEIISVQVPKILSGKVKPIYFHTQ
Briefly: Antagonist activity against androgen receptor expressed in CHOK1 cells after 10 to 30 mins by luciferase reporter gene assay. The class given is functional, cell-based, CHO-K1.

For data set [10], the target named is T5, Glucocorticoid receptor (Homo sapiens, UniProt P04150).
T5 sequence (P04150 whole entry): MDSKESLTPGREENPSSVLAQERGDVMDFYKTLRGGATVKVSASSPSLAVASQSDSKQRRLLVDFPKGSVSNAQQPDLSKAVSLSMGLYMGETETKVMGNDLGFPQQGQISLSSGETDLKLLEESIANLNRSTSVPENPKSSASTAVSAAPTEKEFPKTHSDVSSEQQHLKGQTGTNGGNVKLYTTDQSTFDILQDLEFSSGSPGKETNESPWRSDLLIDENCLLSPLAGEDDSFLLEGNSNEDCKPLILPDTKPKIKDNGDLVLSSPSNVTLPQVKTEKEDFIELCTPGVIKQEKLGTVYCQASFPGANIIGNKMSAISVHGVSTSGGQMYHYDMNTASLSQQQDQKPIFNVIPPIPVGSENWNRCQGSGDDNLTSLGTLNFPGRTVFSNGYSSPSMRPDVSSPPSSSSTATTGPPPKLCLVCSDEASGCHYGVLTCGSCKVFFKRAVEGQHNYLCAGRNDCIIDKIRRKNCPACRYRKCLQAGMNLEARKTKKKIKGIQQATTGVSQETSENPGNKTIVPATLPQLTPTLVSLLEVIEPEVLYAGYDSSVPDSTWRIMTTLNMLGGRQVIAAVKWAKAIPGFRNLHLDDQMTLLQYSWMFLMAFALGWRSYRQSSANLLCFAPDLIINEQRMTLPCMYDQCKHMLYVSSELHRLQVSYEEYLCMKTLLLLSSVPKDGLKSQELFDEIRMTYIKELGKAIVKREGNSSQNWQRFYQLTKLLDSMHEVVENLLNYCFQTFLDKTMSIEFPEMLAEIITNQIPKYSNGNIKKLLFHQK
Briefly: Antagonist activity against glucocorticoid receptor expressed in CHOK1 cells after 10 to 30 mins by luciferase reporter gene assay. The class given is functional, cell-based, CHO-K1.

Data set [11] concerns the target T1, Mineralocorticoid receptor. Put plainly: Antagonist activity against human mineralocorticoid receptor expressed in CHOK1 cells after 10 to 30 mins by luciferase reporter gene assay. The class given is functional, cell-based, CHO-K1.
For data set [12], the target named is T3, Progesterone receptor. Briefly: Displacement of [3H]methyltrienolone from human progesterone receptor overexpressed in HEK293 cells by microbeta counting assay. The class given is cell-based.
Data set [13] concerns the target T4, Androgen receptor. Briefly: Displacement of [3H]-methyltrienolone from human androgen receptor overexpressed in HEK293 cells by microbeta counting assay. The class given is cell-based.
In data set [14] the target is T5, Glucocorticoid receptor. Briefly: Displacement of [3H]dexamethasone from human glucocorticoid receptor overexpressed in HEK293 cells by microbeta counting assay. The class given is cell-based.
The target in data set [15] is T1, Mineralocorticoid receptor. Put plainly: Displacement of [3H]aldosterone from human mineralocorticoid receptor overexpressed in HEK293 cells by microbeta counting assay. The class given is cell-based.
The target of data set [16] is T2, Mineralocorticoid receptor. Briefly: Displacement of [3H]Aldosterone C from rat mineralocorticoid receptor by liquid scintillation counter analysis.

By IC50 is commonly meant the concentration that inhibits the measured activity by half. `Cc1c(C(=O)Nc2ccc(S(C)(=O)=O)cc2)cn(CCO)c1-c1ccccc1C(F)(F)F` came in with an IC50 in [1] of 2.4 nM.
Regarding `COC(=O)[C@@H]1CC2=CC(=O)CC[C@]2(C)[C@@]23O[C@@H]2C[C@@]2(C)[C@@H](CC[C@@]24CCC(=O)O4)[C@H]13` [EPLERENONE], the fraction unbound in [2] was 0.1.
In the case of `CC(=O)S[C@@H]1CC2=CC(=O)CC[C@]2(C)[C@H]2CC[C@@]3(C)[C@@H](CC[C@@]34CCC(=O)O4)[C@H]12` [SPIRONOLACTONE], the fraction unbound in [2] was 0.51.
For the compound `CC1(C)Oc2cc(NS(C)(=O)=O)ccc2N(c2ccc(F)cc2)C1=O` [MT-3995], the IC50 in data set [3] was under 500 nM.
In the case of `CCOc1ncc(C)c2c1[C@H](c1ccc(C#N)cc1OC)C(C(N)=O)=C(C)N2` [FINERENONE], the IC50 in data set [4] is over 1000 nM.
`CC1(C)OC(=S)Nc2ccc(NS(=O)(=O)c3cccs3)cc21`: the IC50 in data set [5] came to 130 nM; in data set [6], 21 nM.
`O=C1COc2ccc(C3=Nn4cnnc4SC3c3ccccc3)cc2N1` (configuration not stated): the IC50 at Progesterone receptor [7] is over 10000 nM.
Regarding `CCOC(=O)C1=C(C)NC(C)=C(C(C)=O)[C@H]1c1cccc2c(=O)cc(C)oc12`, the IC50 at Progesterone receptor [8] turned out to be 9020 nM; against Androgen receptor [9], 4440 nM; against Glucocorticoid receptor [10] it was 5470 nM; in data set [11], 28 nM.
As a reminder, the Ki is the dissociation constant of the complex between target and ligand, obtained from inhibition or displacement. Consider `O=c1[nH]c2cc(/C=C3\c4ccccc4COc4cc(F)ccc43)ccc2n1[C@H]1C[C@H]2COCCN2C1`, for which the Ki turned out to be 478 nM at Progesterone receptor [12], 1170 nM at Androgen receptor [13], 669 nM at Glucocorticoid receptor [14] and 0.4 nM in data set [15].
For the compound `COc1cc(C(=O)Nc2ccc(-c3ccccc3OC(F)(F)F)c(CCN(C)C3CC3)c2)ccc1S(N)(=O)=O`, the half-inhibitory concentration (IC50) in data set [16] was 22 nM.
